Key:
Format in all cases: cell-based, avian
DF-1 cells [1] = experiment: In vitro wound closure assay to measure cell motility; details: mechanical wounding
Protocol: DF-1 cell motility was measured by wounding the cell monolayer and measuring wound closure by monitoring the traversed distance over time. DF-1 cells were plated at 70% confluence on glass cover slips coated with 100 μg/ml of fibronectin. These cells were then transfected with Ad-CaD or Ad-empty and allowed to grow to 100% confluence (2 days post-transfection). A wound was made in the monolayer using a sterile pipette tip with an outer diameter of 300 μm. The same area was captured sequentially at time intervals of 0, 1, 3, and 6 hours under phase contrast microscopy. The migrated distance was assessed at 3 locations that were separated by equal distance. Cell motility was determined as the average velocity for the 3 measurements for each time point. […]
It was next evaluated whether human wild-type 1-CaD expression disturbs cytopathic effects such as wound closure. Cell motility in response to mechanical wounding was measured to address this question. […] Cultured monolayers were subjected to mechanical wounding with a glass pipette and time-lapse images of cell motility were recorded over a period of several hours. Each image was equally divided into 3 regions, and the leading edge of cell migration was measured for each time point. Cell motility for each time point was determined as the average velocity measured for each of 3 regions. […]

DF-1 cells [2] = experiment: Numerical modeling of transcellular impedance (α, Rb, Cm); details: 3 μM cytochalasin D, wild-type DF-1 cells
Excerpt: A numerical analysis was used to calculate specific cell-cell and cell-substrate adhesion and membrane capacitance based on the measured transcellular impedance. The procedure is described in more detail elsewhere for endothelial cells (Moy et al., 2002, Moy et al., 2000), fibroblasts (Giaever and Keese, 1991), and for epithelial cells (Lo et al., 1995). The total impedance across a cell-covered electrode is composed of the impedance created between the ventral surface of the cell and the electrode (related to α and due to cell-matrix adhesion), the impedance created between cells (indicated by Rb and due to cell-cell adhesion), the transcellular impedance created from transcellular current conduction (Zm) and the impedance of a naked electrode (Zn). For these calculations, Zm is inversely related to membrane capacitance (Cm), which is dependent upon membrane convolution, which, in turn, is dependent on the cortical cytoskeleton. The data was expressed as a ratio of the real or imaginary measurement of cell-covered electrode to a naked electrode as a function of current frequency between 25 to 60,000 Hz. A calculated real and imaginary value was generated from the solutions of α, Rb and Cm obtained from a multi-response Levenberg-Maquardt non-linear optimization model of the real, imaginary, real and imaginary (in complex form) and real and imaginary (in magnitude form) data. An error evaluation was calculated using a Chi square analysis of the squared sum of the calculated and the experimental residuals as a function of current frequency. […]
Using a previously reported mathematical model, it was next evaluated whether the difference in 1-CaD-mediated change in transcellular resistance was due to effects on cell-cell, cell-matrix adhesion, membrane capacitance or a combination of all three. […] A calculated resistance and capacitance was generated from iterative solutions of α, Rb and Cm obtained from a multi-response Levenberg-Maquardt non-linear optimization model of the real and/or imaginary data. […]

DF-1 cells [3] = experiment: Cell viability assay, trypan blue; details: 48 hrs, 200 MOI virus or 3 μM cytochalasin D
Protocol: Cultured cells were transfected with Ad-CaD or the controlled virus using a calcium phosphate co-precipitation technique. Cells were washed free of virus and incubated for additional 48 hours in serum containing medium. Transfected cells were exposed to trypan blue dye and the fraction of viable cells was quantitated. Viability of cells transfected with Ad-CaD and controlled virus was compared to the cell viability measured in monolayers exposed to cytochalasin for the same corresponding period.

DF-1 cells [4] = experiment: Transcellular resistance of confluent monolayers on microelectrode (adenovirus system); details: 3 μM cytochalasin D vs virus at MOI of 200
Protocol: Quantitative transcellular impedance measurements were acquired in real-time using a previously reported technique of inoculating cultured cells grown on the surface of microelectrodes coated with 100 μg/ml of fibronectin (Moy et al., 2002, Moy et al., 1998, Moy et al., 1996, Moy et al., 2000). A 1-volt, 4000 Hz AC signal was supplied through a 1-M Ω resistor to approximate a constant-current source. Voltage and phase data were measured with a SRS830 lock-in amplifier (Stanford Instruments) and then later stored and processed with a personal computer. The in-phase voltage, proportional to the resistance, and the out-of-phase voltage, proportional to the capacitive reactance, were measured. For most situations, resistance is reported because it is most sensitive to cytoskeletal-membrane properties. […] A uniform number of viable cells (˜650,000 cells per sample), which was determined by the amount of cells that excluded trypan blue, were inoculated on the electrode to control for the effect of cell viability. Transcellular resistance was measured as a fractional change and normalized to the cell resistance of wild-type DF-1 cells. Transcellular resistance was measured at 15 hours for inter-subject comparisons—a time point at which transcellular resistance was at steady state. […]

DF-1 cells [5] = experiment: Prestress force: constitutive isometric tension on collagen membranes; details: 3 μM cytochalasin D
Protocol: Prestress was determined by the measured loss of constitutive isometric tension in response to cytochalasin D. Isometric tension was measured in cultured DF-1 cells inoculated on the surface of polymerized type 1 collagen membranes as described by Bodmer (1997). Isometric tension was simultaneously monitored in 2 separate isometric vectors to account for the presence of anisotropic tension. Constitutive tension was measured in cell-collagen lattices under unloaded conditions. To determine the optimal length-tension relationship during the unloaded state, the collagen gel was stretched with a micromanipulator that was attached to the transducer until a 10 mg increase in force was observed. The gel was progressively unloaded until no further decline in preload was observed. The length (Carson et al., 1989) of the gel was chosen as the no-load state. […] The constitutive tension was defined as the measured loss in tension upon the addition of cytochalasin D.
Since expression of wild-type human 1-CaD stabilizes membrane capacitance, it was next asked whether this enhancement was attributed to a reduction in myosin ATPase activity. […] Constitutive tension was measured under isometric no-load conditions in order to be consistent with the mechanical state at which transcellular resistance was measured. […]

For `C=C1[C@@H](C)[C@H]2[C@H](Cc3ccccc3)NC(=O)[C@]23[C@H](OC(C)=O)/C=C/[C@@](C)(O)C(=O)[C@@H](C)C/C=C/[C@H]3[C@@H]1O` [Cytochalasin D], the Wound repair (DF-1 cells [1]) was “completely inhibited wound repair”, the “Cm (membrane capacitance)” value (DF-1 cells [2]) was “statistically significant increase in Cm” and the “Rb (cell-cell adhesion)” value (DF-1 cells [2]) was “decrease in α and Rb”. For the same molecule, the “α (cell-matrix adhesion)” value (DF-1 cells [2]) was “decrease in α and Rb”, the “Cell viability / cell death” value (DF-1 cells [3]) was “decreased cell viability in a statistically significant manner” and the Transcellular resistance (DF-1 cells [4]) was “greater loss in transcellular resistance than cells transfected with Ad-CaD or controlled virus”. The Constitutive tension (DF-1 cells [5]) was “abolished constitutive tension”.

From patent US20050163755A1, “Methods and compositions related to 1-caldesmon” (priority 2003, published 2005)
